Assays:
Test in all cases: relative viability (nuclei count vs DMSO), 5 days (fraction); higher = more cells survive
[1] = compound: Nc1nc2[nH]cc(CCc3ccc(C(=O)N[C@@H](CCC(=O)O)C(=O)O)cc3)c2c(=O)[nH]1 [Pemetrexed] + COc1cccc2cc(-c3nc([C@H]4CC[C@H](C(=O)O)CC4)n4ncnc(N)c34)[nH]c12 [OSI-027] (partner 0.5 µM)
How it was run: (§1)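 Dosing by pin tool came one day after lung cancer cell lines were seeded in 1536-well plates, using either one drug or a fixed anchor-drug dose plus five library-drug doses (not always all listed) in √10 steps. After 5 days, nuclei were counted on 4× images. Relative viability is treated-well nuclei count divided by vehicle-well nuclei count, and values are medians of duplicate plates.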

[2] = compound: CC[C@H](Nc1ncnc2[nH]cnc12)c1nc2cccc(F)c2c(=O)n1-c1ccccc1 [Idelalisib] + N=C(N)NC(=N)NCCc1ccccc1 [Phenformin] (partner 250 µM)
How it was run: as §1

[3] = compound: Nc1nc2[nH]cc(CCc3ccc(C(=O)N[C@@H](CCC(=O)O)C(=O)O)cc3)c2c(=O)[nH]1 [Pemetrexed] + NC(=O)Nc1cc(-c2cccc(F)c2)sc1C(=O)N[C@H]1CCCNC1 [AZD7762] (partner 0.2 µM)
How it was run: as §1

[4] = compound: CC[C@H](Nc1ncnc2[nH]cnc12)c1nc2cccc(F)c2c(=O)n1-c1ccccc1 [Idelalisib] + Cc1nc(Nc2ncc(C(=O)Nc3c(C)cccc3Cl)s2)cc(N2CCN(CCO)CC2)n1 [Dasatinib] (partner 0.075 µM)
How it was run: as §1

| Cell Line | relative viability ([1]; first compound 0.002 µM) | relative viability ([1]; first compound 0.006325 µM) | relative viability ([1]; first compound 0.02 µM) | relative viability ([1]; first compound 0.06325 µM) | relative viability ([1]; first compound 0.2 µM) | relative viability ([2]; first compound 0.04 µM) | relative viability ([2]; first compound 0.1265 µM) | relative viability ([2]; first compound 0.4 µM) | relative viability ([2]; first compound 1.265 µM) | relative viability ([2]; first compound 4 µM) | relative viability ([3]; first compound 0.002 µM) | relative viability ([3]; first compound 0.006325 µM) | relative viability ([3]; first compound 0.02 µM) | relative viability ([3]; first compound 0.06325 µM) | relative viability ([3]; first compound 0.2 µM) | relative viability ([4]; first compound 0.04 µM) | relative viability ([4]; first compound 0.1265 µM) | relative viability ([4]; first compound 0.4 µM) | relative viability ([4]; first compound 1.265 µM) | relative viability ([4]; first compound 4 µM) |
| --- | --- | --- | --- | --- | --- | --- | --- | --- | --- | --- | --- | --- | --- | --- | --- | --- | --- | --- | --- | --- |
| LCLC-97TM1 | 0.552 | 0.361 | 0.61 | 0.477 | 0.235 | 0.43 | 0.434 | 0.267 | 0.592 | 0.453 | 0.338 | 0.164 | 0.273 | 0.243 | 0.127 | 0.938 | 0.846 | 0.807 | 0.946 | 0.88 |
| NCI-H1915 | 0.58 | 0.631 | 0.661 | 0.609 | 0.573 | 0.387 | 0.36 | 0.364 | 0.381 | 0.372 | 0.6 | 0.638 | 0.751 | 0.599 | 0.652 | 0.425 | 0.316 | 0.284 | 0.357 | 0.3 |
| NCI-H3122 | 0.857 | 0.879 | 0.923 | 0.524 | 0.221 | 0.389 | 0.371 | 0.403 | 0.41 | 0.388 | 1.04 | 0.863 | 0.966 | 0.4 | 0.276 | 0.646 | 0.55 | 0.552 | 0.817 | 0.467 |
| NCI-H1993 | 0.609 | 0.524 | 0.503 | 0.504 | 0.585 | 0.57 | 0.484 | 0.554 | 0.59 | 0.486 | 0.546 | 0.825 | 0.779 | 0.563 | 0.481 | 0.785 | 0.562 | 0.51 | 0.51 | 0.522 |
| NCI-H2405 | 0.628 | 0.597 | 0.67 | 0.641 | 0.663 | 0.451 | 0.37 | 0.322 | 0.355 | 0.35 | 0.781 | 0.833 | 0.843 | 0.689 | 0.629 | 0.25 | 0.201 | 0.199 | 0.245 | 0.217 |
| NCI-H2342 | 0.537 | 0.618 | 0.593 | 0.633 | 0.698 | 0.597 | 0.584 | 0.514 | 0.614 | 0.482 | 0.354 | 0.492 | 0.392 | 0.524 | 0.443 | 0.358 | 0.316 | 0.324 | 0.304 | 0.327 |
